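48-hour exposure; five concentrations; linearly interpolated endpoints. GI50 is the concentration that inhibits growth by half.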 Calls of active or inactive are those of the source. No stated cut-off is given here; in the data, active = GI50 up to about 1.1 µM and inactive = higher.
Experiments:
Experiment in all cases: growth of human tumour cells (NCI), 48 h
Malme-3M = test system: Malme-3M
U-251 = test system: U-251
IGROV-1 = test system: IGROV-1
DU-145 = test system: DU-145
NCI-H226 = test system: NCI-H226
HL-60 = test system: HL-60
786-0 = test system: 786-0
M14 = test system: M14
LOX IMVI = test system: LOX IMVI
MDA-N = test system: MDA-N
HCT-116 = test system: HCT-116
UACC-257 = test system: UACC-257
OVCAR-3 = test system: OVCAR-3
OVCAR-5 = test system: OVCAR-5
CAKI-1 = test system: CAKI-1
NCI-H522 = test system: NCI-H522
SK-OV-3 = test system: SK-OV-3
SF-539 = test system: SF-539
OVCAR-4 = test system: OVCAR-4
Hs-578T = test system: Hs-578T

| SMILES | GI50 (Malme-3M) | GI50 (U-251) | GI50 (IGROV-1) | GI50 (DU-145) | GI50 (NCI-H226) | GI50 (HL-60) | GI50 (786-0) | GI50 (M14) | GI50 (LOX IMVI) | GI50 (MDA-N) | GI50 (HCT-116) | GI50 (UACC-257) | GI50 (OVCAR-3) | GI50 (OVCAR-5) | GI50 (CAKI-1) | GI50 (NCI-H522) | GI50 (SK-OV-3) | GI50 (SF-539) | GI50 (OVCAR-4) | GI50 (Hs-578T) |
| --- | --- | --- | --- | --- | --- | --- | --- | --- | --- | --- | --- | --- | --- | --- | --- | --- | --- | --- | --- | --- |
| NC(=O)/N=C(\N)NC(=O)c1ccccc1 | > 100 µM (inactive) | > 100 µM (inactive) | > 100 µM (inactive) | > 100 µM (inactive) | > 100 µM (inactive) | > 100 µM (inactive) | > 100 µM (inactive) | > 100 µM (inactive) | > 100 µM (inactive) | > 100 µM (inactive) | > 100 µM (inactive) | > 100 µM (inactive) | > 100 µM (inactive) | > 100 µM (inactive) | > 100 µM (inactive) | > 100 µM (inactive) |  |  |  |  |
| COc1cc2c(c(N)c1OC)C(=O)/C(=C/c1cc(C)c(O)c(C)c1)C2 |  | < 0.0164 µM (active) | 0.0367 µM (active) | < 0.01 µM (active) | 4.19 µM (inactive) | < 0.01 µM (active) | < 0.01 µM (active) | < 0.01 µM (active) | < 0.01 µM (active) | < 0.01 µM (active) | < 0.01 µM (active) | > 100 µM (inactive) | < 0.01 µM (active) | 0.693 µM (active) | 4.25 µM (inactive) | < 0.01 µM (active) | < 0.01 µM (active) | < 0.01 µM (active) | 7.91 µM (inactive) |  |
| Cc1ccc(-c2c(C#N)c(S)n(NS(=O)(=O)c3ccc(C)cc3)c(=O)c2C#N)cc1 | 3.56 µM (inactive) | 18.1 µM (inactive) | 16.7 µM (inactive) | 41.8 µM (inactive) | 11.7 µM (inactive) | 14.9 µM (inactive) | 29 µM (inactive) | 31.3 µM (inactive) | 27.2 µM (inactive) | 35.6 µM (inactive) | 27 µM (inactive) | 40 µM (inactive) | 34.7 µM (inactive) | 27.4 µM (inactive) | 28 µM (inactive) | 19.1 µM (inactive) | 45 µM (inactive) | 20.3 µM (inactive) | 15.5 µM (inactive) |  |
| CC1=NOC(=O)/C1=C/c1cccc2ccccc12 | > 100 µM (inactive) | > 100 µM (inactive) | > 100 µM (inactive) |  | > 100 µM (inactive) | > 100 µM (inactive) | > 100 µM (inactive) | > 100 µM (inactive) | > 100 µM (inactive) |  | > 100 µM (inactive) | > 100 µM (inactive) | > 100 µM (inactive) | > 100 µM (inactive) | > 100 µM (inactive) | > 100 µM (inactive) | > 100 µM (inactive) | > 100 µM (inactive) | > 100 µM (inactive) |  |
| Cc1ccccc1NC(=O)C(=O)CC(=O)C1CCOC1=O (stereo unspecified) | > 100 µM (inactive) | > 100 µM (inactive) | > 100 µM (inactive) |  | > 100 µM (inactive) | > 100 µM (inactive) | > 100 µM (inactive) | > 100 µM (inactive) | > 100 µM (inactive) |  | > 100 µM (inactive) | > 100 µM (inactive) | > 100 µM (inactive) | > 100 µM (inactive) | > 100 µM (inactive) | > 100 µM (inactive) | > 100 µM (inactive) | > 100 µM (inactive) | > 100 µM (inactive) |  |
| O=C1c2ccccc2C(=O)N1CC#CCO |  | > 100 µM (inactive) |  |  | > 100 µM (inactive) | > 100 µM (inactive) | > 100 µM (inactive) | > 100 µM (inactive) |  |  | > 100 µM (inactive) | > 100 µM (inactive) | > 100 µM (inactive) | > 100 µM (inactive) | > 100 µM (inactive) | > 100 µM (inactive) | 95.5 µM (inactive) | > 100 µM (inactive) | > 100 µM (inactive) |  |
| CCOC(=O)/C(=C\c1ccc(N(CCC#N)CCC#N)cc1C)NC(=O)/C=C/c1ccccc1 | > 100 µM (inactive) | > 100 µM (inactive) | > 100 µM (inactive) |  | 96.2 µM (inactive) | > 100 µM (inactive) | > 100 µM (inactive) | > 100 µM (inactive) | > 100 µM (inactive) |  | > 100 µM (inactive) | > 100 µM (inactive) | > 100 µM (inactive) | > 100 µM (inactive) | > 100 µM (inactive) | > 100 µM (inactive) | > 100 µM (inactive) | > 100 µM (inactive) |  |  |
| CC12CC(=O)C3C(C(=O)C1)C32C (stereo unspecified) | 20.5 µM (inactive) | > 100 µM (inactive) | > 100 µM (inactive) | > 100 µM (inactive) | > 100 µM (inactive) |  | > 100 µM (inactive) | > 100 µM (inactive) | > 100 µM (inactive) | > 100 µM (inactive) | > 100 µM (inactive) | > 100 µM (inactive) | > 100 µM (inactive) | > 100 µM (inactive) | > 100 µM (inactive) | > 100 µM (inactive) | > 100 µM (inactive) | > 100 µM (inactive) | > 100 µM (inactive) |  |
| CC1(C)O[C@@H](CCl)C[C@H](C#N)O1 | > 100 µM (inactive) | > 100 µM (inactive) | > 100 µM (inactive) |  | 97.1 µM (inactive) | > 100 µM (inactive) | > 100 µM (inactive) | > 100 µM (inactive) | > 100 µM (inactive) |  | > 100 µM (inactive) | > 100 µM (inactive) | > 100 µM (inactive) | > 100 µM (inactive) | > 100 µM (inactive) | > 100 µM (inactive) | > 100 µM (inactive) | > 100 µM (inactive) | > 100 µM (inactive) |  |
| Cn1ncc2c(Nc3ccc(Cl)cc3)c3ccccc3nc21 | 20.2 µM (inactive) | 15.6 µM (inactive) | 21.2 µM (inactive) |  | 17.3 µM (inactive) | 23.4 µM (inactive) | 14.1 µM (inactive) | 14.8 µM (inactive) | 15.1 µM (inactive) |  | 12.2 µM (inactive) | 17.3 µM (inactive) | 18.7 µM (inactive) | 23.2 µM (inactive) | 21.8 µM (inactive) | 19.4 µM (inactive) | 20.5 µM (inactive) | 15.6 µM (inactive) | 12.4 µM (inactive) |  |
| C=C(C)C1Cc2c(c3ccccc3n(C)c2=O)O1 (stereo unspecified) | > 100 µM (inactive) | > 100 µM (inactive) | > 100 µM (inactive) |  | > 100 µM (inactive) | > 100 µM (inactive) |  | > 100 µM (inactive) | > 100 µM (inactive) |  |  |  | > 100 µM (inactive) |  | > 100 µM (inactive) | > 100 µM (inactive) | > 100 µM (inactive) | > 100 µM (inactive) |  |  |
| CCOC(=O)c1csc(NC(=O)CN2CCN(c3ccccc3)CC2)n1 | > 100 µM (inactive) | > 100 µM (inactive) | 85.9 µM (inactive) | > 100 µM (inactive) | > 100 µM (inactive) | 70.6 µM (inactive) |  | > 100 µM (inactive) | > 100 µM (inactive) | > 100 µM (inactive) |  | > 100 µM (inactive) | > 100 µM (inactive) | > 100 µM (inactive) | > 100 µM (inactive) |  | > 100 µM (inactive) |  | 99.1 µM (inactive) |  |
| CCCCP(CCCC)(CCCC)=C(C(=O)OC)C(C(=O)OC)=C1SC(C(=O)OC)=C(C(=O)OC)S1 | 18.2 µM (inactive) | 16 µM (inactive) | 11.6 µM (inactive) | 40.8 µM (inactive) | 20 µM (inactive) |  | 17.8 µM (inactive) | 15.2 µM (inactive) | 13.2 µM (inactive) |  | 12 µM (inactive) | 17.6 µM (inactive) | 19.3 µM (inactive) | 23 µM (inactive) |  | 17.7 µM (inactive) | 25.8 µM (inactive) |  | 16.2 µM (inactive) | 18.5 µM (inactive) |
| CCN(CC)CC1CCCCN1CC(=O)N1c2cc(Cl)ccc2NC(=O)CC1C (stereo unspecified) | > 100 µM (inactive) | > 100 µM (inactive) |  |  | > 100 µM (inactive) | > 100 µM (inactive) | > 100 µM (inactive) | > 100 µM (inactive) | > 100 µM (inactive) |  | > 100 µM (inactive) | > 100 µM (inactive) | > 100 µM (inactive) | > 100 µM (inactive) | > 100 µM (inactive) | > 100 µM (inactive) | 0.0849 µM (active) | > 100 µM (inactive) | > 100 µM (inactive) |  |
| COC(=O)c1nc(NN)cc(O)c1CCCCCc1c(O)nc(NN)nc1C(=O)OC | > 100 µM (inactive) | > 100 µM (inactive) | > 100 µM (inactive) |  | > 100 µM (inactive) | > 100 µM (inactive) | > 100 µM (inactive) | > 100 µM (inactive) | > 100 µM (inactive) |  | > 100 µM (inactive) | > 100 µM (inactive) | > 100 µM (inactive) | > 100 µM (inactive) | > 100 µM (inactive) | > 100 µM (inactive) | > 100 µM (inactive) | > 100 µM (inactive) | > 100 µM (inactive) |  |
| Cc1ccc(-c2nnc(SCC(=O)O)[nH]2)cc1 | > 100 µM (inactive) | > 100 µM (inactive) | > 100 µM (inactive) |  | > 100 µM (inactive) | > 100 µM (inactive) | > 100 µM (inactive) | > 100 µM (inactive) |  |  | > 100 µM (inactive) | > 100 µM (inactive) | > 100 µM (inactive) | > 100 µM (inactive) | > 100 µM (inactive) | > 100 µM (inactive) | > 100 µM (inactive) | > 100 µM (inactive) | > 100 µM (inactive) |  |
| COc1cc(C2c3cc4c(cc3[C@@H](Nc3ccccc3)C3COC(=O)[C@H]23)OCO4)cc(OC)c1O (stereo partly specified) | 1.41 µM (inactive) | 0.391 µM (active) | 2.21 µM (inactive) |  | 0.28 µM (active) | 0.14 µM (active) |  |  | 0.414 µM (active) |  | 0.391 µM (active) | 0.615 µM (active) | 2.48 µM (inactive) | 1.86 µM (inactive) | 0.134 µM (active) | 1.24 µM (inactive) | 0.845 µM (active) | 0.322 µM (active) | 5.6 µM (inactive) |  |
